The test system of the data set is critically ill patients with vasodilatory shock. The data set is described as follows: Prospective observational study: safety (thromboembolic events, serum troponin elevation). The conditions noted are these: for Elevated serum troponin - %: troponin I level ≥20 ng/L. The class given is in vivo. As to the method:
A prospective observational study was conducted to evaluate the efficacy, safety feasibility of using angiotensin II as a primary vasopressor for treatment of critically ill patients with vasodilatory shock.
Study Population: A total of 40 patients receiving angiotensin II were matched to 80 control patients who received conventional vasopressors (norepinephrine, vasopressin, metaraminol, epinephrine, or combinations thereof). […] The mean patient age was 63 years (SD 14 years), two-thirds of patients were male, and the median APACHE III score was 65 (IQR 49 to 80). There were no significant differences between groups in terms of demographics, clinical characteristics, illness severity, baseline vasopressor type and dose, physiological parameters, or biochemistry.
Vasodilatory shock was defined by a mean arterial pressure <65 mmHg in the presence of sufficient volume resuscitation and preserved cardiac output, based on either a cardiac index ≥2.3 L/min/m^2, a central venous oxygen saturation ≥70%, or clinician judgement. Patients were excluded if they had kidney failure (i.e., chronic hemodialysis, peritoneal dialysis or a baseline estimated glomerular filtration rate <15 mL/min/1.73 m^2) or were diagnosed with arterial (acute coronary syndrome, ischemic stroke, or mesenteric ischemia) or venous thrombosis (deep vein thrombosis or pulmonary embolism) within the preceding 6 months. […] The mean patient age was 63 (SD 14) years, two-thirds of patients were male, and the median APACHE III score was 65 (IQR 49 to 80). There were no significant differences between the angiotensin II group and the conventional vasopressor group in terms of demographics, clinical characteristics, illness severity, vasopressor type and use, physiological parameters, or biochemistry.
Intervention: Infusions of angiotensin II were initiated to deliver a dose between 5 and 10 ng/kg/min. The dose was adjusted every 5 minutes according to a protocolized titration scheme to achieve a mean arterial pressure (MAP) of ≥65 mmHg (dose range 1.25 to 40 ng/kg/min). During the adjustment period, infusions of other vasopressor agents were weaned and discontinued where possible. Where the MAP was inadequate despite the maximum dose of angiotensin II, additional vasopressor agents were prescribed at the discretion of the clinician. The use of vasopressin (dose range 0.01 to 0.04 IU/min) was preferred over the use of norepinephrine (dose range 0 to 40 mcg/min). Angiotensin II was continued until resolution of shock, death, or for a maximum of 7 days. If ongoing vasopressor therapy was required after this time, norepinephrine was utilized.
Control: The control arm included critically ill patients with vasodilatory shock who received conventional vasopressors. To address confounding by indication and other sources of bias arising from the use of non-randomized data, a propensity score was estimated for the likelihood of treatment with angiotensin II to match patients in the intervention arm to their nearest neighbor in the control arm using a 1:2 ratio without replacement. Propensity scores were generated based on age, sex, APACHE II score, serum creatinine level, vasopressor type and dose at enrollment, and time from ICU admission and initiation of any vasopressor to initiation of angiotensin II.
Secondary Outcomes: Secondary renal outcomes included new or progressive AKI, creatinine trajectory, the requirement for CRRT, time to CRRT liberation, and the development of a major adverse kidney event at day 7 (MAKE7). New AKI was defined and staged according to the Kidney Disease Improving Global Outcomes (KDIGO) criteria as a rise in serum creatinine of ≥26.5 μmol/L in 48 hours or as a ≥50% increase in serum creatinine from baseline within 7 days. Progressive AKI was defined as an increase in AKI severity by at least one KDIGO stage. MAKE7 was a composite of death, dialysis dependence, and a persistent 50% increase in serum creatinine level. […]

On to `CC[C@H](C)[C@H](NC(=O)[C@H](Cc1ccc(O)cc1)NC(=O)[C@@H](NC(=O)[C@H](CCCNC(=N)N)NC(=O)[C@@H](N)CC(=O)O)C(C)C)C(=O)N[C@@H](Cc1cnc[nH]1)C(=O)N1CCC[C@H]1C(=O)N[C@@H](Cc1ccccc1)C(=O)O` [Angiotensin II, Asp-Arg-Val-Tyr-Ile-His-Pro-Phe], for which the “Elevated serum troponin - %” value is “(8) %”. Under “in vivo”, the “Deep vein thrombosis - %” value is given as “(5) %” and the “Pulmonary embolus - %” value is “(10) %”. Under “number of patients”, the “Deep vein thrombosis - no.” value came to 2 and the “Pulmonary embolus - no.” value was 4. Moreover, the “Elevated serum troponin - %” value (listed as angiotensin II) came out at 8%.

Values taken from US20240197812A1, “Methods of Treating Cardiac Injury” (Proletariat Therapeutics, Inc., priority 2022, published 2024).
